What was measured:
Clostridioides difficile = assay: Antimicrobial activity against Clostridium difficile clinical isolate obtained from patient after completion of two courses of drug treatment; format: functional
[1] = Drug level in diarrhea patient feces at 400 mg, po every 12 hrs for 3 days; format: ADME, organism-based; details: human, read-out: Drug uptake

MIC (Clostridioides difficile): > 256 µg/mL
concentration at 3 days [1]: 8e+06 ng/g
SMILES: CO[C@H]1/C=C/O[C@@]2(C)Oc3c(C)c(O)c4c(O)c(c5c(nc6cc(C)ccn65)c4c3C2=O)NC(=O)/C(C)=C\C=C\[C@H](C)[C@H](O)[C@@H](C)[C@@H](O)[C@@H](C)[C@H](OC(C)=O)[C@@H]1C [RIFAXIMIN]
